Like-named read-outs stand apart in the source and are kept apart here.
Tests used:
Format in all cases: in vivo
[1] = tested on: galium (catchweed bedstraw, Galium aparine); assay: Test B postemergence plant response
In short: (§1)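 Plants grown in pots of loam soil–sand blend were sprayed postemergence with formulated test chemicals at 2 to 10 cm height, one- to two-leaf stage. After about 10 days in a greenhouse, injury was visually rated against untreated controls on a 0 to 100 scale (0 no effect, 100 complete control).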

[2] = tested on: blackgrass (Alopecurus myosuroides); assay: Test B postemergence plant response
In short: as §1

[3] = tested on: chickweed (common chickweed, Stellaria media); assay: Test D postemergence plant response; conditions: Stellaria media, post-emergence
In short: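 Postemergence spray on plants 2–18 cm tall (1- to 4-leaf stage), grown in pots of peat/vermiculite medium. Plants were kept in a greenhouse for 13–15 days, then visually rated against untreated controls on a 0 (no effect) to 100 (complete control) scale.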

[4] = tested on: waterhemp (common waterhemp, Amaranthus rudis); assay: Test D pre-/postemergence plant response; conditions: Amaranthus tuberculatus; for pest or weed control at 31 g/ha: 31 g ai/ha; for pest or weed control at 62 g/ha: 62 g ai/ha; for pest or weed control at 125 g/ha: 125 g ai/ha
In short: (§2)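 Preemergence: seeds in loam/sand blend treated with test chemicals in non-phytotoxic solvent with surfactant; postemergence: plants at 2–18 cm (1- to 4-leaf stage) in peat-based medium sprayed likewise. Greenhouse 13 to 15 days, then visual rating vs controls, 0 (no effect) to 100 (complete control).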

[5] = tested on: oilseed rape (Brassica napus); assay: Test D pre-/postemergence plant response; conditions: Brassica napus; for plant injury at 31 g/ha: 31 g ai/ha
In short: as §2

[6] = tested on: barnyardgrass (Echinochloa crus-galli); assay: Test D pre-/postemergence plant response; conditions: Echinochloa crus-galli; for pest or weed control at 16 g/ha: 16 g ai/ha; for pest or weed control at 31 g/ha: 31 g ai/ha; for pest or weed control at 62 g/ha: 62 g ai/ha; for pest or weed control at 125 g/ha: 125 g ai/ha
In short: as §2

corn (Zea mays) = assay: Test D pre-/postemergence plant response; conditions: Zea mays; for Corn plant response rating (crop injury, 0 = no effect, 100 = complete kill) at 62 g/ha: 62 g ai/ha
In short: as §2

[7] = tested on: giant foxtail (Setaria faberii); assay: Test D pre-/postemergence plant response; conditions: Setaria faberi; for pest or weed control at 16 g/ha: 16 g ai/ha; for pest or weed control at 16 g/ha / pest or weed control at 31 g/ha: scale 0 to 100 (0 no effect, 100 complete control); for pest or weed control at 31 g/ha: 31 g ai/ha; for pest or weed control at 125 g/ha: 125 g ai/ha
In short: as §2

[8] = 125 g ai/ha, postemergence, 0 to 100 scale, 0 no effect, 100 complete control
[9] = Postemergence, 31 g ai/ha, 0 to 100 scale (0 no effect, 100 complete control)
[10] = post-emergence, Postemergence, scale 0 to 100, 0 no effect, 100 complete control, read-out: Plant response rating, Waterhemp
[11] = pre-emergence, Preemergence, scale 0 to 100 (0 no effect, 100 complete control), read-out: Plant response rating, Waterhemp
[12] = post-emergence, Postemergence, scale 0 to 100 (0 no effect, 100 complete control), read-out: Barnyardgrass plant response rating
[13] = post-emergence, Postemergence, scale 0 to 100, 0 no effect, 100 complete control, read-out: Plant response rating, Barnyardgrass
[14] = pre-emergence, Preemergence, scale 0 to 100 (0 no effect, 100 complete control), read-out: Plant response rating, Barnyardgrass
[15] = post-emergence, Postemergence, read-out: Foxtail, Giant plant response rating
[16] = pre-emergence, Preemergence, read-out: Plant response rating, Foxtail, Giant

Fc1cccc(Oc2ncc(Br)cn2)c1-c1cc(C(F)F)no1 [Compound 145, 5-bromo-2-[2-[3-(difluoromethyl)-5-isoxazolyl]-3-fluorophenoxy]pyrimidine]
Plant response rating, Galium [1, 8]: 100
Plant response rating, Galium [1, 9]: 100
Plant response rating, Blackgrass [2, 8]: 90
Plant response rating, Blackgrass [2, 9]: 70
pest or weed control at 16 g/ha ([3]; 16 g ai/ha, scale 0 to 100 (0 no effect, 100 complete control), read-out: Chickweed plant response rating): 70%
pest or weed control at 31 g/ha ([3]; 31 g ai/ha, scale 0 to 100 (0 no effect, 100 complete control), read-out: Chickweed plant response rating): 80%
pest or weed control at 62 g/ha ([3]; 62 g ai/ha, scale 0 to 100, 0 no effect, 100 complete control, read-out: Plant response rating, Chickweed): 95%
pest or weed control at 125 g/ha ([3]; 125 g ai/ha, scale 0 to 100, 0 no effect, 100 complete control, read-out: Plant response rating, Chickweed): 100%
pest or weed control at 31 g/ha ([4]; post-emergence, Postemergence, scale 0 to 100 (0 no effect, 100 complete control), read-out: Waterhemp plant response rating): 90%
pest or weed control at 62 g/ha [4, 10]: 100%
pest or weed control at 125 g/ha [4, 10]: 100%
pest or weed control at 125 g/ha ([4]; pre-emergence, Preemergence, read-out: Plant response rating (scale 0 to 100), Waterhemp): 100%
pest or weed control at 16 g/ha ([4]; pre-emergence, Preemergence, 16 g ai/ha, scale 0 to 100 (0 no effect, 100 complete control), read-out: Plant response rating, Waterhemp): 100%
pest or weed control at 31 g/ha [4, 11]: 100%
pest or weed control at 62 g/ha [4, 11]: 100%
plant injury at 31 g/ha ([5]; post-emergence, Postemergence, scale 0 to 100 (0 no effect, 100 complete control), read-out: Oilseed Rape plant response rating): 70%
plant injury at 125 g/ha ([5]; pre-emergence, Preemergence, 125 g ai/ha, read-out: Plant response rating (scale 0 to 100), Oilseed Rape): 100%
plant injury at 16 g/ha ([5]; pre-emergence, Preemergence, 16 g ai/ha, scale 0 to 100 (0 no effect, 100 complete control), read-out: Plant response rating, Oilseed Rape): 40%
plant injury at 31 g/ha ([5]; pre-emergence, Preemergence, scale 0 to 100 (0 no effect, 100 complete control), read-out: Plant response rating, Oilseed Rape): 100%
plant injury at 62 g/ha ([5]; pre-emergence, Preemergence, 62 g ai/ha, scale 0 to 100 (0 no effect, 100 complete control), read-out: Plant response rating, Oilseed Rape): 100%
pest or weed control at 16 g/ha [6, 12]: 5%
pest or weed control at 31 g/ha [6, 12]: 5%
pest or weed control at 62 g/ha [6, 13]: 10%
pest or weed control at 125 g/ha [6, 13]: 30%
pest or weed control at 125 g/ha ([6]; pre-emergence, Preemergence, read-out: Plant response rating (scale 0 to 100), Barnyardgrass): 100%
pest or weed control at 16 g/ha [6, 14]: 65%
pest or weed control at 31 g/ha [6, 14]: 85%
pest or weed control at 62 g/ha [6, 14]: 85%
plant injury at 16 g/ha (corn (Zea mays); post-emergence, Postemergence, 16 g ai/ha, scale 0 to 100 (0 no effect, 100 complete control), read-out: Corn plant response rating): 5%
plant injury at 31 g/ha (corn (Zea mays); post-emergence, Postemergence, 31 g ai/ha, scale 0 to 100 (0 no effect, 100 complete control), read-out: Corn plant response rating): 5%
Corn plant response rating (crop injury, 0 = no effect, 100 = complete kill) at 62 g/ha (corn (Zea mays); post-emergence, Postemergence, scale 0 to 100, 0 no effect, 100 complete control): 5%
Corn plant response rating (crop injury, 0 = no effect, 100 = complete kill) at 125 g/ha (corn (Zea mays); post-emergence, Postemergence, 125 g ai/ha, scale 0 to 100, 0 no effect, 100 complete control): 10%
plant injury at 125 g/ha (corn (Zea mays); pre-emergence, Preemergence, 125 g ai/ha, read-out: Plant response rating (scale 0 to 100), Corn): 45%
Corn plant response rating (crop injury, 0 = no effect, 100 = complete kill) at 16 g/ha (corn (Zea mays); pre-emergence, Preemergence, 16 g ai/ha, scale 0 to 100 (0 no effect, 100 complete control)): 0%
Corn plant response rating (crop injury, 0 = no effect, 100 = complete kill) at 31 g/ha (corn (Zea mays); pre-emergence, Preemergence, 31 g ai/ha, scale 0 to 100 (0 no effect, 100 complete control)): 5%
Corn plant response rating (crop injury, 0 = no effect, 100 = complete kill) at 62 g/ha (corn (Zea mays); pre-emergence, Preemergence, scale 0 to 100 (0 no effect, 100 complete control)): 10%
pest or weed control at 16 g/ha [7, 15]: 5%
pest or weed control at 31 g/ha [7, 15]: 10%
pest or weed control at 62 g/ha ([7]; post-emergence, Postemergence, 62 g ai/ha, scale 0 to 100, 0 no effect, 100 complete control, read-out: Plant response rating, Foxtail, Giant): 20%
pest or weed control at 125 g/ha ([7]; post-emergence, Postemergence, scale 0 to 100, 0 no effect, 100 complete control, read-out: Plant response rating, Foxtail, Giant): 20%
pest or weed control at 125 g/ha ([7]; pre-emergence, Preemergence, read-out: Plant response rating (scale 0 to 100), Foxtail, Giant): 100%
pest or weed control at 16 g/ha [7, 16]: 85%
pest or weed control at 31 g/ha [7, 16]: 100%
